According to the NIST ThermoML archive (doi:10.1016/j.jct.2012.03.025):
Numbers after ± are expanded uncertainties.

Experiment: mn = molality of the nth substance listed, in mol/kg
Conditions: 101 kPa, Liquid; for speed of sound: Sing-around technique in a fixed-path interferometer; for mass density: Vibrating tube method

CC(=O)[O-].CCCCn1cc[n+](C)c1 [1-butyl-3-methylimidazolium acetate] + O
Conditions | mass density, 288.15 K [kg/m3] | mass density, 293.15 K [kg/m3] | mass density, 298.15 K [kg/m3] | mass density, 303.15 K [kg/m3] | mass density, 308.15 K [kg/m3] | speed of sound, 288.15 K [m/s] | speed of sound, 293.15 K [m/s] | speed of sound, 298.15 K [m/s] | speed of sound, 303.15 K [m/s] | speed of sound, 308.15 K [m/s]
m1 = 0.0534 | 999.93 ± 0.11 | 999 ± 0.11 | 997.824 ± 0.11 | 996.406 ± 0.11 | 994.772 ± 0.11 | 1476.3 ± 0.78 | 1492 ± 0.78 | 1505.6 ± 0.79 | 1517.5 ± 0.79 | 1527.3 ± 0.79
m1 = 0.104 | 1000.71 ± 0.11 | 999.755 ± 0.11 | 998.548 ± 0.11 | 997.105 ± 0.11 | 995.451 ± 0.11 | 1485.4 ± 0.8 | 1500.6 ± 0.8 | 1513.6 ± 0.8 | 1525.2 ± 0.81 | 1534.3 ± 0.81
m1 = 0.1535 | 1001.45 ± 0.11 | 1000.47 ± 0.11 | 999.237 ± 0.11 | 997.775 ± 0.11 | 996.101 ± 0.11 | 1494.2 ± 0.82 | 1508.8 ± 0.82 | 1521.3 ± 0.82 | 1532.3 ± 0.83 | 1541 ± 0.83
m1 = 0.209 | 1002.31 ± 0.12 | 1001.29 ± 0.12 | 1000.03 ± 0.12 | 998.535 ± 0.12 | 996.836 ± 0.12 | 1504 ± 0.84 | 1517.9 ± 0.85 | 1529.8 ± 0.85 | 1540 ± 0.85 | 1548.3 ± 0.85
m1 = 0.2498 | 1002.95 ± 0.12 | 1001.91 ± 0.12 | 1000.62 ± 0.12 | 999.11 ± 0.12 | 997.391 ± 0.12 | 1511 ± 0.86 | 1524.4 ± 0.87 | 1535.9 ± 0.87 | 1545.7 ± 0.87 | 1553.8 ± 0.87
m1 = 0.2997 | 1003.66 ± 0.12 | 1002.59 ± 0.12 | 1001.27 ± 0.12 | 999.737 ± 0.12 | 997.998 ± 0.12 | 1519.5 ± 0.89 | 1532 ± 0.89 | 1543 ± 0.89 | 1552.5 ± 0.89 | 1560.3 ± 0.9
m1 = 0.35 | 1004.51 ± 0.13 | 1003.4 ± 0.13 | 1002.05 ± 0.13 | 1000.49 ± 0.13 | 998.725 ± 0.13 | 1528.1 ± 0.91 | 1540 ± 0.91 | 1550 ± 0.92 | 1559 ± 0.92 | 1566.8 ± 0.92
m1 = 0.4035 | 1005.33 ± 0.13 | 1004.19 ± 0.13 | 1002.81 ± 0.13 | 1001.22 ± 0.13 | 999.427 ± 0.13 | 1536.9 ± 0.94 | 1548 ± 0.94 | 1557.6 ± 0.94 | 1566 ± 0.95 | 1573.3 ± 0.95
m1 = 0.457 | 1006.2 ± 0.14 | 1005.02 ± 0.14 | 1003.61 ± 0.14 | 1001.98 ± 0.14 | 1000.17 ± 0.14 | 1545.8 ± 0.97 | 1556 ± 0.97 | 1564.8 ± 0.97 | 1572.9 ± 0.97 | 1579.9 ± 0.98
m1 = 0.5036 | 1006.93 ± 0.15 | 1005.72 ± 0.14 | 1004.28 ± 0.14 | 1002.63 ± 0.14 | 1000.79 ± 0.14 | 1553.4 ± 0.99 | 1562.8 ± 1 | 1571 ± 1 | 1578.5 ± 1 | 1585.6 ± 1

CCCCn1cc[n+](C)c1.[Br-] [1-butyl-3-methylimidazolium bromide] + O
Conditions | mass density, 288.15 K [kg/m3] | mass density, 293.15 K [kg/m3] | mass density, 298.15 K [kg/m3] | mass density, 303.15 K [kg/m3] | mass density, 308.15 K [kg/m3] | speed of sound, 288.15 K [m/s] | speed of sound, 293.15 K [m/s] | speed of sound, 298.15 K [m/s] | speed of sound, 303.15 K [m/s] | speed of sound, 308.15 K [m/s]
m1 = 0.0513 | 1001.7 ± 0.065 | 1000.78 ± 0.064 | 999.601 ± 0.064 | 998.177 ± 0.064 | 996.522 ± 0.064 | 1472.8 ± 0.77 | 1488.1 ± 0.77 | 1501.8 ± 0.77 | 1513.7 ± 0.78 | 1524 ± 0.78
m1 = 0.1034 | 1004.29 ± 0.066 | 1003.33 ± 0.065 | 1002.13 ± 0.065 | 1000.67 ± 0.064 | 998.994 ± 0.064 | 1478.8 ± 0.77 | 1493.6 ± 0.78 | 1506.8 ± 0.78 | 1518.3 ± 0.78 | 1528.2 ± 0.79
m1 = 0.1531 | 1006.73 ± 0.067 | 1005.72 ± 0.066 | 1004.51 ± 0.066 | 1003.02 ± 0.066 | 1001.34 ± 0.065 | 1484.5 ± 0.78 | 1498.7 ± 0.78 | 1511.5 ± 0.78 | 1522.5 ± 0.79 | 1532 ± 0.79
m1 = 0.2012 | 1009.09 ± 0.069 | 1008.05 ± 0.068 | 1006.79 ± 0.067 | 1005.29 ± 0.067 | 1003.58 ± 0.066 | 1489.6 ± 0.78 | 1503.7 ± 0.79 | 1516 ± 0.79 | 1526.6 ± 0.79 | 1535.7 ± 0.8
m1 = 0.2499 | 1011.45 ± 0.07 | 1010.37 ± 0.069 | 1009.06 ± 0.068 | 1007.54 ± 0.068 | 1005.82 ± 0.067 | 1494.9 ± 0.79 | 1508.5 ± 0.79 | 1520.4 ± 0.8 | 1530.7 ± 0.8 | 1539.3 ± 0.8
m1 = 0.2995 | 1013.81 ± 0.071 | 1012.7 ± 0.07 | 1011.38 ± 0.07 | 1009.81 ± 0.069 | 1008.07 ± 0.069 | 1500.4 ± 0.8 | 1513.5 ± 0.8 | 1524.9 ± 0.8 | 1534.6 ± 0.8 | 1543 ± 0.81
m1 = 0.35 | 1016.21 ± 0.073 | 1015.02 ± 0.072 | 1013.64 ± 0.071 | 1012.1 ± 0.07 | 1010.34 ± 0.07 | 1505.5 ± 0.8 | 1518.3 ± 0.8 | 1529.3 ± 0.81 | 1538.7 ± 0.81 | 1546.7 ± 0.81
m1 = 0.4008 | 1018.58 ± 0.074 | 1017.37 ± 0.073 | 1015.96 ± 0.073 | 1014.35 ± 0.072 | 1012.6 ± 0.072 | 1510.9 ± 0.81 | 1523 ± 0.81 | 1533.6 ± 0.81 | 1542.6 ± 0.82 | 1550.2 ± 0.82
m1 = 0.4565 | 1021.19 ± 0.077 | 1019.89 ± 0.075 | 1018.45 ± 0.075 | 1016.8 ± 0.074 | 1015.05 ± 0.073 | 1516.4 ± 0.81 | 1528.1 ± 0.82 | 1538.2 ± 0.82 | 1546.8 ± 0.82 | 1554 ± 0.82
m1 = 0.5012 | 1023.28 ± 0.079 | 1021.91 ± 0.077 | 1020.5 ± 0.076 | 1018.75 ± 0.076 | 1017.01 ± 0.075 | 1520.9 ± 0.82 | 1532.2 ± 0.82 | 1542 ± 0.82 | 1550.2 ± 0.83 | 1557.1 ± 0.83

CCCCn1cc[n+](C)c1.[Cl-] [1-butyl-3-methylimidazolium chloride] + O
Conditions | mass density, 288.15 K [kg/m3] | mass density, 293.15 K [kg/m3] | mass density, 298.15 K [kg/m3] | mass density, 303.15 K [kg/m3] | mass density, 308.15 K [kg/m3] | speed of sound, 288.15 K [m/s] | speed of sound, 293.15 K [m/s] | speed of sound, 298.15 K [m/s] | speed of sound, 303.15 K [m/s] | speed of sound, 308.15 K [m/s]
m1 = 0.0519 | 999.802 ± 0.045 | 998.874 ± 0.045 | 997.684 ± 0.046 | 996.264 ± 0.047 | 994.611 ± 0.048 | 1474.6 ± 0.78 | 1489.9 ± 0.78 | 1503.6 ± 0.78 | 1515.5 ± 0.79 | 1525.8 ± 0.79
m1 = 0.1011 | 1000.45 ± 0.049 | 999.477 ± 0.049 | 998.265 ± 0.05 | 996.836 ± 0.051 | 995.146 ± 0.051 | 1482 ± 0.79 | 1496.7 ± 0.8 | 1509.9 ± 0.8 | 1521.4 ± 0.8 | 1531.3 ± 0.8
m1 = 0.1548 | 1001.14 ± 0.054 | 1000.16 ± 0.054 | 998.918 ± 0.055 | 997.452 ± 0.055 | 995.754 ± 0.056 | 1489.8 ± 0.81 | 1504 ± 0.81 | 1516.6 ± 0.82 | 1527.7 ± 0.82 | 1537.2 ± 0.82
m1 = 0.2011 | 1001.77 ± 0.06 | 1000.76 ± 0.059 | 999.494 ± 0.059 | 998.007 ± 0.06 | 996.292 ± 0.061 | 1496.5 ± 0.83 | 1510.1 ± 0.83 | 1522.3 ± 0.83 | 1533 ± 0.84 | 1542.3 ± 0.84
m1 = 0.2583 | 1002.56 ± 0.066 | 1001.52 ± 0.066 | 1000.2 ± 0.066 | 998.699 ± 0.066 | 996.957 ± 0.067 | 1504.3 ± 0.85 | 1517.8 ± 0.85 | 1529.2 ± 0.86 | 1539.7 ± 0.86 | 1548.4 ± 0.86
m1 = 0.311 | 1003.25 ± 0.073 | 1002.18 ± 0.073 | 1000.86 ± 0.073 | 999.317 ± 0.073 | 997.577 ± 0.073 | 1511.4 ± 0.87 | 1524.5 ± 0.88 | 1535.6 ± 0.88 | 1545.6 ± 0.88 | 1553.9 ± 0.88
m1 = 0.3619 | 1003.98 ± 0.081 | 1002.88 ± 0.08 | 1001.53 ± 0.08 | 999.989 ± 0.079 | 998.169 ± 0.08 | 1518.1 ± 0.89 | 1531 ± 0.9 | 1541.4 ± 0.9 | 1551.3 ± 0.9 | 1559.3 ± 0.9
m1 = 0.4064 | 1004.59 ± 0.087 | 1003.46 ± 0.087 | 1002.09 ± 0.086 | 1000.54 ± 0.086 | 998.737 ± 0.086 | 1524 ± 0.91 | 1536.4 ± 0.92 | 1546.8 ± 0.92 | 1556.2 ± 0.92 | 1563.9 ± 0.92
m1 = 0.451 | 1005.23 ± 0.094 | 1004.07 ± 0.094 | 1002.67 ± 0.093 | 1001.08 ± 0.093 | 999.294 ± 0.092 | 1530 ± 0.94 | 1542.1 ± 0.94 | 1551.6 ± 0.94 | 1561 ± 0.94 | 1568.4 ± 0.94
m1 = 0.5069 | 1005.99 ± 0.1 | 1004.8 ± 0.1 | 1003.4 ± 0.1 | 1001.79 ± 0.1 | 999.991 ± 0.1 | 1536.9 ± 0.96 | 1549 ± 0.96 | 1557.9 ± 0.97 | 1567.1 ± 0.97 | 1574 ± 0.97
